Measured values as given in patent publication US20230391881A1, “COMPOSITIONS AND METHODS FOR OVERCOMING DR5-INDUCED IMMUNE EVASION BY SOLID TUMORS” (University of Virginia Patent Foundation, priority 2020, published 2023).
*1 amine or outer side, *2 acyl side, *3 side chain or, on linkers, in order; H or OH if unused. Where a SMILES comes first, the peptide text is derived from it. Bridges are numbered along the chain shown (N, C = ends). Roman numbers before positions name the chains, in order. [ ]: non-standard residue; d: D form. The star is where a group is joined. Actinocin(9to1) = Cc1c2oc3c(C)ccc(C(=O)[*:1])c3nc-2c(C(=O)[*:2])c(N)c1=O; NMeV = CN[C@H](C(=O)O)C(C)C; Cbz = O=C(OCc1ccccc1)*; Sar = CNCC(=O)O

How the values were obtained:
[1] = system: PD-L1; assay: Western blotting / flow cytometry of PD-L1 and regulators in tumor cells; assay type: cell-based, human; conditions: for reversal of PD-L1 stability generated by DR5 agonists: MDA-MB-436 cells pretreated 0-8 hours with inhibitor, then DR5 agonist 6 hours
Protocol: Western Blotting. Cells were cultured overnight in tissue culture-treated 6-well plates prior to treatment. After antibody treatment for 48 hours or another indicated time, cells were rinsed with PBS and then lysed with RIPA buffer supplemented with protease inhibitor cocktail (ThermoFisher Scientific). Centrifugation at 14000 rpm for 30 minutes cleared lysates and protein was quantified by PIERCE™ BCA Protein Assay Kit (ThermoFisher Scientific). Western blotting was performed using the Bio-Rad SDS-PAGE Gel system. Briefly, 30 μg of protein was resolved on 10% Bis-Tris gels and then transferred onto PVDF membrane. Membranes were blocked for one hour at room temperature in TBS+0.1% Tween (TBST) with 5% non-fat dry milk. Membranes were probed overnight at 4° C. with primary antibodies. Membranes were washed three times in TBST and then incubated with anti-rabbit or anti-mouse secondary antibodies (1/10,000 dilution, coupled to peroxidase) for 1 hour at room temperature. Membranes were then washed three times with TBST and immunocomplexes were detected with SUPERSIGNAL™ West Pico Chemiluminescent Substrate (ThermoFisher Scientific). Images were taken using a Bio-Rad Gel Doc Imager system.
(§1) Flow cytometry. The cell surface expression of PD-L1, CD47, huDR5, muDR5, CD8, CD4, CD25 etc. was analyzed by flow cytometry. Overnight grown tumors were trypsinized and suspended in FACS buffer (PBS containing 2% FBS). Single cell suspensions were then incubated with primary DR4/DR5 antibodies for 1 hour at 4° C. with gentle mixing. Following wash with FACS buffer, the cells were then incubated with fluorescently labeled anti-Rabbit antibody for 1 hour. Cells were washed and flow cytometry was performed using a BD FACSCALIBUR™ flow cytometer. The data was analyzed by FCS Express (De Novo Software, Los Angeles, California, United States of America) and FlowJo.

[2] = system: 4T1 tumors; assay: Tumor regression in 4T1 syngeneic TNBC tumor models; assay type: in vivo, mouse; conditions: BALB/c mice, 4T1 tumors; MD5-1 50 μg i.p., GSK269962 2 mg/kg into the tumors (FIG. 4K)
Protocol: FIGS. 4A-4K. DR5 agonist activated ROCK1 functions to help PD-L1 surface mobilization. (FIGS. 4A and 4B) KMTR2 and lexatumumab treated MDA-MB-436 and OVCAR3 (respectively) lysates for indicated early time points were analyzed for caspase-8, caspase-3, ROCK1, pMLC, PARP, PD-L1 and CMTM6 etc. as indicated. Vertical arrows indicate sequential kinetics of caspase-8, ROCK1, and caspase-3 activation, arrows with “n.s.” below them indicate nonspecific band by ROCK1 antibody. (FIG. 4C) OVCAR3 cells were treated with pMLC activating ionophore A23187 (positive control) and lexatumumab ±ROCK1 inhibitors or ±rDR5 or ±rFOLR1. Lysates were later analyzed for ROCK1, pMLC, caspase-3 and PARP with GAPDH as loading control. (FIG. 4D) MDA-MB-436 and OVCAR3 cells were treated with indicated ROCK1 inhibitors 2 hours prior to DR5 agonist KMTR2 treatment. After 4 hours flow cytometry was used to analyze surface PD-L1. […] Relative luciferase signal was quantified and plotted after subtraction of background signal from untreated cells. […] Tumor volumes were quantified at indicated days by caliper measurements. […] Statistical significance in FIG. 4J was determined by unpaired student t-test and in FIG. 4K using two-tailed […] Wilcoxon Mann-Whitney test. […]
FIGS. 6A-6M. […] CD8/CD45 and CD4/CD45 expressing cells were measured by flow cytometry. […] Harvested tumors homogenized followed by quantitation. […]

[3] = system: PD-L1-PD-1 interaction; assay: PD-1/PD-L1 tumor cell-Jurkat cell co-culture luciferase reporter assay; assay type: cell-based, human; conditions: tumor cells pretreated with ROCK1 inhibitor then DR5 agonist
Protocol: PD-1/PD-L1 reporter assay. […] The original kit contains PD-1 effector Jurkat T cells stably express human PD-1 and NFAT-induced luciferase, while PD-L1 aAPC/CHO-K1 cells stably express human PD-L1 and a cell surface protein designed to activate cognate TCRs in an antigen-independent manner. […] Antibodies blocking PD-1-PD-L1 interaction removes inhibitory signals, resulting in luciferase activation. […] Next day, medium was removed from the culture plate and cells were treated with diluted DR5 agonist antibodies. […] Glo response NFAT-luc2/PD1 Jurkat cells (Promega) were re-suspended in assay buffer and incubated with 1 μg/ml anti-CD3 for 2 hours to activate PD1 Jurkat cells. […] After 6 hours of co-culture, assay plates were removed from the incubator; content of each well were mixed thoroughly with the help of multi-channel pipette and then transferred to a white opaque assay plate. 10 mg/ml luciferase reagent was prepared and loaded into the plate reader, which injects 50 μl reagent in each well and measures luminescence immediately. Data was analyzed using Microsoft Excel software. Wherever indicated, inhibitors (ERK, STAT3, Caspase, ROCK1 etc.) were added 2-3 hrs prior to DR5 agonist antibodies in 96 well culture of tumors as described herein.

[4] = system: MDA-MB-436 cells; assay: Flow cytometry of surface PD-L1 on tumor cells treated with DR5 agonist antibodies (FIG. 20B); assay type: cell-based, human
Protocol: FIGS. 20A-20C. (FIG. 20A) 3 biological replicates of total PD-L1 and GAPDH from triple negative breast cancer cell (MDAMB-436) and ovarian cell (OVCAR-3) lysates treated with lexatumumab for 6 hours. (FIG. 20B) Raw mean fluorescent intensity (MFI) and % positive PD-L1 counts from the cells treated with indicated DR5 agonist antibodies. MFI values are shown on the top of solid color bars. There are multiple instances (shown on the top) where despite having lower % positive PD-L1 population, MFI values were higher after indicated DR5 agonist treatments. As an example, in MDA-MB-436 cells treated with tigatuzumab and lexatumumab, lexatumumab treated cells had higher % positive PD-L1 population (9.32 vs 11.97), however MFI was higher in tigatuzumab treated population (107.54 vs 45.87). (FIG. 20C) KMTR2 treated (50 μg, 4 doses) UCD52 TNBC PDX tumors were stained for PD-L1 using immunohistochemistry (IHC). 3 additional representative images are shown. Also see FIG. 1L.
as §1
PD-L1 surface expression analysis of tumor derived cells. The cell surface expression of PD-L1 from tumor-derived cell was analyzed by flow cytometry. Isolated cells were suspended in FACS buffer (PBS containing 1% FBS). The single cell suspension was then incubated with primary PD-L1 antibodies (1:400 dilution) for 1 hour at 4° C. with gentle mixing. […] Following 3 times wash with FACS buffer, the cells were then incubated with fluorescently labeled (alexa 488) anti-Rabbit secondary antibody for 1 hour. Cells were then washed 3-4 times with FACS buffer and flow cytometry was performed using BD FACSCALIBUR™. The data was analyzed by FCS Express (De Novo Software) and FlowJo software.

Compound	reversal of PD-L1 stability generated by DR5 agonists [1]	luciferase activity in co-culture reporter assay in presence of ROCK1 inhibitors [3]	other results
Cc1c2oc3c(C)ccc(C(=O)N[C@@H]4C(=O)N[C@H](C(C)C)C(=O)N5CCC[C@H]5C(=O)N(C)CC(=O)N(C)[C@@H](C(C)C)C(=O)O[C@@H]4C)c3nc-2c(C(=O)N[C@@H]2C(=O)N[C@H](C(C)C)C(=O)N3CCC[C@H]3C(=O)N(C)CC(=O)N(C)[C@@H](C(C)C)C(=O)O[C@@H]2C)c(N)c1=O [actinomysin-D] (I: T[dV]P[Sar][NMeV] / II: T[dV]P[Sar][NMeV]; ester I:1-I:C, II:1-II:C; linker I:N-II:N via Actinocin(9to1))	did not also reversed PD-L1 stability		
CCn1c(-c2nonc2N)nc2cnc(Oc3cccc(NC(=O)c4ccc(OCCN5CCOCC5)cc4)c3)cc21 [GSK269962, N-(3-{[2-(4-Amino-1,2,5-oxadiazol-3-yl)-1-ethyl-1H-imidazo[4,5-c]pyridin-6-yl]oxy}phenyl)-4-[2-(morpholin-4-yl)ethoxy]benzamide]		Increased average luciferase intensity	Tumor regression efficacy (tumor volume) [2]: ineffective
tigatuzumab: Monospecific Antibody, Human DR5 activator; VL and VH SEQ ID NOs: 3 and 4			PD-L1 mean fluorescent intensity (MFI) ([4]; MDA-MB-436 cells treated with DR5 agonist antibody (FIG. 20B)): 107.54; % positive PD-L1 population ([4]; MDA-MB-436 cells treated with DR5 agonist antibody, raw flow cytometry counts (FIG. 20B)): 9.32%
CC(C)C[C@@H](C=O)NC(=O)[C@H](CC(C)C)NC(=O)[C@H](CC(C)C)NC(=O)OCc1ccccc1 [MG132] (Cbz-Leu-Leu-Leu-aldehyde)			PD-L1 stability with proteasome inhibition (MG132) ([1]; cell surface or total lysates): increased overall PD-L1
CC1=C(C(=O)Nc2cc3cn[nH]c3cc2F)C(c2ccc(C(F)(F)F)cc2)CC(=O)N1 (centres unmarked) [GSK429286, N-(6-Fluoro-1H-indazol-5-yl)-6-methyl-2-oxo-4-[4-(trifluoromethyl)phenyl]-3,4-dihydro-1H-pyridine-5-carboxamide]		Increased average luciferase intensity	
C[C@@H]1C[C@@H]([C@H](O)CC2CC(=O)NC(=O)C2)C(=O)[C@@H](C)C1 [Cycloheximide]	did not also reversed PD-L1 stability		
